Measurements: patent US8778966B2, “Quinolinone derivatives as PARP and tank inhibitors” (Janssen Pharmaceutica, NV, priority 2007, dated 2014)

Assays:
Human PARP-1 enzyme = target: T1, Human PARP-1 enzyme (Homo sapiens, UniProt P09874); assay: In vitro Scintillation Proximity Assay (SPA) for PARP-1 inhibitory activity; format: biochemical; details: read-out: in vitro SPA assay PARP-1 pIC50 (converted)
T1 construct: purchased Trevigen
Summary of the method: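 SPA assay: nicked-DNA-activated PARP-1 (0.1–0.2 μg/ml) ADP-ribosylates biotinylated histones (2 μg/ml) using [3H]-NAD+, 20 min at RT in Tris pH 8/DTT/MgCl2, stopped with 2 mM NAD+. Blank-subtracted cpm expressed as % control; IC50 by linear interpolation, reported as pIC50 (10−5 to 3×10−9 M tested).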

HCT116 cells = assay: Mitotic arrest assay on HCT116 cells (phospho-histone H3 Ser10); format: cell-based, human; details: lowest active dose; for minimal effective concentration: Homo sapiens, HCT-116, HCT116 cells, read-out: Mitotic arrest HCT116 LAD (converted); for Mitotic arrest HCT116 LAD: HCT116 cells, the values are: pLAD (−log M lowest active dose)
Summary of the method: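 Seeded overnight, then compound-treated 6 h at 37 °C (≤0.1% DMSO); fixed, stained with Alexa Fluor 488 anti-phospho-H3 (Ser10) plus Hoechst 33342, imaged on InCell Analyzer 1000. Blank-subtracted signal divided by SD (sigma), triplicate; value is lowest dose giving sigma >5 (LAD).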

T1 sequence (P09874 whole entry): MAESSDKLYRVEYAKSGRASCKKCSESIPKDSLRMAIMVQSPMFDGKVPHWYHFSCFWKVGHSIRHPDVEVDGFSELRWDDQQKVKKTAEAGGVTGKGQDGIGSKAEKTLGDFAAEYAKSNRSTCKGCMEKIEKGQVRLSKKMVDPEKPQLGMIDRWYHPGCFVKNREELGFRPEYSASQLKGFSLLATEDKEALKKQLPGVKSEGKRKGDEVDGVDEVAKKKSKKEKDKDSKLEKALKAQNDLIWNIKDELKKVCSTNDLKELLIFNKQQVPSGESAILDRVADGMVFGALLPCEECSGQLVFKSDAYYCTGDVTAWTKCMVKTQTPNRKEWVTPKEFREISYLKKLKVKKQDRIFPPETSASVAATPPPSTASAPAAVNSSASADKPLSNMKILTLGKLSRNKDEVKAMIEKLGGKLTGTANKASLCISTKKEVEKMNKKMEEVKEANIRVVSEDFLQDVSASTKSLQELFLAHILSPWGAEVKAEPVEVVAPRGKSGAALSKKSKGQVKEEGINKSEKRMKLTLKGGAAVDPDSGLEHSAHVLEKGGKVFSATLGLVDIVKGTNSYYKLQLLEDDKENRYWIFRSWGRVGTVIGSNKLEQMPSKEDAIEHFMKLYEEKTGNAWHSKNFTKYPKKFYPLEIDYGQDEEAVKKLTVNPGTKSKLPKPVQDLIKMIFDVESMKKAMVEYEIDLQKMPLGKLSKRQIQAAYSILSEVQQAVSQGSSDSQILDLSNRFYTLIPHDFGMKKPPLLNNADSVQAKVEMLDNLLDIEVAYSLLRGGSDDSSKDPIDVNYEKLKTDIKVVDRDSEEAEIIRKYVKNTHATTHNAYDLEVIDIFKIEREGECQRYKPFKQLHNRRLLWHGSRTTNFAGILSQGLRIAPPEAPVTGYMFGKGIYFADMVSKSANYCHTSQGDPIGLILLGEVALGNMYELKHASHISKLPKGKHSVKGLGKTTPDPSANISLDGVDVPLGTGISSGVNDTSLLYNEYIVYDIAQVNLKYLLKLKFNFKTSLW

Structure (SMILES) | IC50 (Human PARP-1 enzyme) [µM] | minimal effective concentration (HCT116 cells) [µM] | Mitotic arrest HCT116 LAD (HCT116 cells)
CCc1cc2ccc([C@](C)(C#N)Cc3ccccc3)cc2[nH]c1=O (single isomer, unassigned) [Compound 45] | 0.316 | > 10 | –
CCc1cc2ccc([C@@](C)(C#N)Cc3ccccc3)cc2[nH]c1=O (single isomer, unassigned) [Compound 46] | 0.316 | 0.316 | –
CCc1cc2ccc(C(C)(C#N)CC3COc4ccccc4O3)cc2[nH]c1=O (single isomer, unassigned) [Compound 47] | 0.398 | – | 5.5
CCc1cc2ccc(C(C)(C#N)Cc3cccc(C#C[Si](C)(C)C)c3)cc2[nH]c1=O (centres unmarked) [Compound 1] | 0.398 | 1 | –
CCc1cc2ccc(C(C)(C#N)Cc3cccc(CO)c3)cc2[nH]c1=O (centres unmarked) [Compound 9] | 0.2 | 0.316 | –
CCc1cc2ccc(C(C#N)(Cc3ccccc3)CC3CC3)cc2[nH]c1=O (centres unmarked) [Compound 28] | – | 3.16 | –
CC(C#N)(Cc1ccccc1)c1ccc2cc(CO)c(=O)[nH]c2c1 (centres unmarked) [Compound 40] | 2.51 | 3.16 | –
CCc1cc2ccc(C(C)(C#N)Cc3nc(OC)cc(OC)n3)cc2[nH]c1=O (centres unmarked) [Compound 43] | 0.2 | 0.0316 | –
CCc1cc2ccc(C(C)(C#N)Cc3ccccc3)cc2[nH]c1=O (centres unmarked) [Compound 44] | 0.316 | 0.316 | –
CCc1cc2ccc(C(C)(C#N)Cc3cccc(Br)c3)cc2[nH]c1=O (centres unmarked) [Compound 49] | 0.316 | 0.1 | –
CCOP(=O)(OCC)c1cccc(CC(C)(C#N)c2ccc3cc(CC)c(=O)[nH]c3c2)c1 (centres unmarked) [Compound 50] | 2.51 | 0.316 | –
CCc1cc2ccc(C(C)(C#N)Cc3cccc(CN4CCN(C)CC4)c3)cc2[nH]c1=O (centres unmarked) [Compound 57] | 3.98 | > 10 | –
CCc1cc2ccc(C(C)(C#N)Cc3cccc(CN4CCOCC4)c3)cc2[nH]c1=O (centres unmarked) [Compound 58] | 0.501 | 3.16 | –
CCc1cc2ccc(C(C)(C#N)Cc3cccc(CNC)c3)cc2[nH]c1=O (centres unmarked) [Compound 59] | 0.631 | 10 | –
CCc1cc2ccc(C(C)(C#N)Cc3cccc(CNCCN4CCOCC4)c3)cc2[nH]c1=O (centres unmarked) [Compound 61] | 1 | 10 | –
CCc1cc2ccc(C(C)(C#N)Cc3cccc(C(=O)NCCOC)c3)cc2[nH]c1=O (centres unmarked) [Compound 62] | 0.501 | 1 | –
CCc1cc2ccc(C(C)(C#N)Cc3cccc(N4CCCCC4)c3)cc2[nH]c1=O (centres unmarked) [Compound 65] | 1.26 | 1 | –

Structure (SMILES) | IC50 (Human PARP-1 enzyme) [µM] | minimal effective concentration (HCT116 cells) [µM] | Mitotic arrest HCT116 LAD (HCT116 cells)
CCc1cc2ccc(C(C)(C#N)Cc3cccc(N4CCN(C)CC4)c3)cc2[nH]c1=O (centres unmarked) [Compound 66] | 1.26 | 3.16 | –
CCc1cc2ccc(C(C)(C#N)Cc3cccc(OCC4CC4)c3)cc2[nH]c1=O (centres unmarked) [Compound 67] | 1 | 0.316 | –
CCc1cc2ccc(C(C)(C#N)Cc3cccc(OCCCN4CCN(C)CC4)c3)cc2[nH]c1=O (centres unmarked) [Compound 69] | 0.794 | 10 | –
Cc1cc2ccc(C(C)(C#N)Cc3noc(-c4cccc(C(F)(F)F)c4)n3)cc2[nH]c1=O (centres unmarked) [Compound 70] | 3.98 | 1 | –
Cc1cc2ccc(C(C)(C#N)Cc3nc4ccccc4s3)cc2[nH]c1=O (centres unmarked) [Compound 75] | 1.26 | 0.1 | –
CCc1cc2ccc(C(C)(C#N)Cc3ccc(OC)c(C#N)c3)cc2[nH]c1=O (centres unmarked) [Compound 77] | 0.398 | 0.316 | –
CCc1cc2ccc(C(C)(C#N)Cc3cc(Cl)ccc3OC)cc2[nH]c1=O (centres unmarked) [Compound 80] | 1 | 0.1 | –
CCc1cc2ccc(C(C)(C#N)Cc3cccc(Br)c3C)cc2[nH]c1=O (centres unmarked) [Compound 81] | 1.26 | 0.1 | –
CCc1cc2ccc(C(C)(C#N)Cc3ccc(C)c(F)c3F)cc2[nH]c1=O (centres unmarked) [Compound 83] | 0.631 | 0.316 | –
CCc1cc2ccc(C(C)(C#N)Cc3c(C)cccc3C)cc2[nH]c1=O (centres unmarked) [Compound 84] | 1.26 | 0.316 | –
CCc1cc2ccc(C(C)(C#N)Cc3csc(C)n3)cc2[nH]c1=O (centres unmarked) [Compound 86] | 0.501 | 1 | –
CCc1cc2ccc(C(C)(C#N)Cc3ccc4nccnc4c3)cc2[nH]c1=O (centres unmarked) [Compound 87] | 0.0794 | 0.316 | –
CCc1cc2ccc(C(C)(C#N)Cc3cc(Cl)cc4c3OCOC4)cc2[nH]c1=O (centres unmarked) [Compound 90] | 0.316 | 0.316 | –
CCc1cc2ccc(C(C)(C#N)Cc3cc4c(cc3Cl)OCO4)cc2[nH]c1=O (centres unmarked) [Compound 91] | 1.26 | 0.1 | –
CCc1cc2ccc(C(C)(C#N)Cc3cc(Cl)cc4c3OCOC4)cc2[nH]c1=O (centres unmarked) [Compound 92] | 0.251 | – | 6.5
CCc1cc2ccc(C(C)(C#N)Cc3nncn3C)cc2[nH]c1=O (centres unmarked) [Compound 93] | 0.126 | 1 | –
CCc1cc2ccc(C(C)(C#N)Cc3cccnc3)cc2[nH]c1=O (centres unmarked) [Compound 97] | 0.0398 | 3.16 | –

The next lines start with results.

IC50 (Human PARP-1 enzyme) [µM] | Structure (SMILES) | minimal effective concentration (HCT116 cells) [µM] | Mitotic arrest HCT116 LAD (HCT116 cells)
0.2 | CCc1cc2ccc([C@](C)(C#N)Cc3nc(OC)cc(OC)n3)cc2[nH]c1=O (single isomer, unassigned) [Compound 52] | 3 | –
0.0501 | CCc1cc2ccc([C@@](C)(C#N)Cc3nc(OC)cc(OC)n3)cc2[nH]c1=O (single isomer, unassigned) [Compound 53] | 0.02 | –
1 | CCc1cc2ccc(C(C)(C#N)Cc3cccc(CN(C)C)c3)cc2[nH]c1=O (centres unmarked) [Compound 7] | 3.16 | –
0.501 | CCc1cc2ccc(C(C)(C#N)Cc3cccc(COC)c3)cc2[nH]c1=O (centres unmarked) [Compound 8] | 0.1 | –
1 | CCc1cc2ccc(C(C)(C#N)Cc3c(F)ccc(C)c3F)cc2[nH]c1=O (centres unmarked) [Compound 41] | 0.316 | –
0.2 | CCc1cc2ccc(C(C)(C#N)Cc3nnsc3Cl)cc2[nH]c1=O (centres unmarked) [Compound 42] | 0.1 | –
0.126 | CCc1cc2ccc(C(C)(C#N)Cc3cccc(C#N)c3)cc2[nH]c1=O (centres unmarked) [Compound 51] | 0.1 | –
0.158 | CCc1cc2ccc(C(C)(C#N)CCOc3ccc([N+](=O)[O-])cc3)cc2[nH]c1=O (centres unmarked) [Compound 54] | 0.1 | –
0.794 | CCc1cc2ccc(C(C)(C#N)Cc3cccc(CNCCOC)c3)cc2[nH]c1=O (centres unmarked) [Compound 60] | 1 | –
1 | CCc1cc2ccc(C(C)(C#N)Cc3cccc(C(=O)N(C)C)c3)cc2[nH]c1=O (centres unmarked) [Compound 63] | 0.316 | –
0.794 | CCc1cc2ccc(C(C)(C#N)Cc3cccc(N4CCNCC4)c3)cc2[nH]c1=O (centres unmarked) [Compound 64] | 3.16 | –
1 | CCc1cc2ccc(C(C)(C#N)Cc3cccc(OCCCN4CCOCC4)c3)cc2[nH]c1=O (centres unmarked) [Compound 68] | 10 | –
3.16 | Cc1cc2ccc(C(C)(C#N)Cc3cc4ccccc4s3)cc2[nH]c1=O (centres unmarked) [Compound 71] | 0.316 | –
1.26 | Cc1cc2ccc(C(C)(C#N)Cc3ccc(Cl)s3)cc2[nH]c1=O (centres unmarked) [Compound 72] | 0.1 | –
2 | Cc1cc2ccc(C(C)(C#N)Cc3ccc(C(F)(F)F)o3)cc2[nH]c1=O (centres unmarked) [Compound 73] | 0.316 | –
1 | Cc1cc2ccc(C(C)(C#N)Cc3cccc4cccnc34)cc2[nH]c1=O (centres unmarked) [Compound 74] | 0.316 | –
1.58 | Cc1cc2ccc(C(C)(C#N)Cc3ccccc3)cc2[nH]c1=O (centres unmarked) [Compound 76] | 0.316 | –
1.26 | CCc1cc2ccc(C(C)(C#N)Cc3cc(C)ccc3C)cc2[nH]c1=O (centres unmarked) [Compound 78] | 0.1 | –
0.794 | CCc1cc2ccc(C(C)(C#N)Cc3ccc(F)c(C)c3)cc2[nH]c1=O (centres unmarked) [Compound 79] | 0.316 | –
3.98 | CCc1cc2ccc(C(C)(C#N)Cc3ccc(Cl)c(C(F)(F)F)c3)cc2[nH]c1=O (centres unmarked) [Compound 82] | 0.1 | –
0.126 | CCc1cc2ccc(C(C)(C#N)Cc3nc4ccccc4o3)cc2[nH]c1=O (centres unmarked) [Compound 85] | 0.316 | –
1.58 | CCc1cc2ccc(C(C)(C#N)Cc3c(C)c(C)cc(C)c3C)cc2[nH]c1=O (centres unmarked) [Compound 88] | 1 | –
1.58 | CCc1cc2ccc(C(C)(C#N)Cc3c(C)c(C)c(C)c(C)c3C)cc2[nH]c1=O (centres unmarked) [Compound 89] | 3.16 | –
0.126 | CCc1cc2ccc(C(C)(C#N)Cc3cccc4nnn(C)c34)cc2[nH]c1=O (centres unmarked) [Compound 94] | 3.16 | –
0.251 | CCc1cc2ccc(C(C)(C#N)Cc3nn(C)c4ccccc34)cc2[nH]c1=O (centres unmarked) [Compound 95] | 0.1 | –
0.126 | CCc1cc2ccc(C(C)(C#N)Cc3cn4ccccc4n3)cc2[nH]c1=O (centres unmarked) [Compound 96] | 1 | –
